Entries after “also recorded” stand apart in the source; their conditions may differ.
Key:
AQP5 = target: T1, AQP5 (Rattus norvegicus, UniProt P47864); experiment: Xenopus oocyte swelling assay, AQP5-expressing oocytes treated with HgCl2 / β-mercaptoethanol; type: cell-based; conditions: for effect of HgCl2 on Pf of oocytes expressing AQP5: 1 mM HgCl2, 5 min.
T1 construct: expressed in transfected cells; host or cells: Xenopus oocytes (defolliculated, stage V-VI) injected with cRNA
Protocol: Functional expression in Oocytes--A 1-kb BamHI fragment containing the 5' untranslated sequence and the entire open reading frame of the salivary cDNA was blunt-end-ligated into the BglII site of the Xenopus expression construct pXβG, which contains the HindIII-Pst insert of pSP64T in pBS II KS (Preston et al., 1992, Science, 256:385-387). Capped cRNA was synthesized in vitro after digestion with Xbal (Preston et al., 1993). Defolliculated stage V-VI Xenopus oocytes were injected with 50 nl of water or up to 5 ng of sample cRNAs and incubated for 3 days at 18° C. in 200 mosM modified Barth's buffer. The oocytes were transferred to 70 mosM modified Barth's buffer at 21° C.; oocyte swelling was monitored by videomicroscopy, and the coefficient of osmotic water permeability (Pf) was determined (Preston et al., 1992, 1993). Uptake of [^14 C]urea or [^14 C]glycerol was measured by incubating oocytes in 200 mosM Barth's buffer for 10-20 min at 21° C. followed by washing and SDS solubilization. No increase in ion conductance was found when control oocytes were compared to RNA-injected oocytes by two electrode voltage clamps (Preston et al, 1992).
Shown are the mean values and standard deviations of 4-5 oocytes receiving no further treatment (stippled bars), oocytes incubated for 5 min. in 1 mM HgCl2 (black bars), or oocytes incubated for 5 min. in 1 mM HgCl2 followed by 30 min. in 5 mM β-mercaptoethanol (open bars). Similar to oocytes injected with AQP1 cRNA, injection of oocytes with the salivary cRNA increased the Pf by approximately 20-fold (FIG. 15). Therefore, the salivary protein qualifies as the 5th mammalian member of the Aquaporin family of water channels (Agre et al., 1993b, Am. J. Physiol., 265:F461), and the gene has been designated Aquaporin-5 (symbol AQP5) by the Genome Data Base.

AQP1 = target: T2, AQP1 (Homo sapiens, UniProt P29972); experiment: Xenopus oocyte osmotic swelling assay, AQP1 RNA-injected oocytes treated with HgCl2 / β-mercaptoethanol; type: cell-based; conditions: for Pf: AQP1 RNA-injected (10 ng) oocytes
T2 construct: expressed in transfected cells; host or cells: Xenopus laevis oocytes injected with in vitro transcribed AQP1 RNA
T2 sequence (P29972 1-269): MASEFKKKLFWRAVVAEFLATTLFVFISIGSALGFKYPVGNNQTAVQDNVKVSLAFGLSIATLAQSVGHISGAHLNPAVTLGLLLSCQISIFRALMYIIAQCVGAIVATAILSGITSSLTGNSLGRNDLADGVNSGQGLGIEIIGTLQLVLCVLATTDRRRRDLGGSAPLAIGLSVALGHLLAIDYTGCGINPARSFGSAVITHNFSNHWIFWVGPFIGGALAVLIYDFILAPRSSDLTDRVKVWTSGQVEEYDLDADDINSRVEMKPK
Protocol: (§1) Expression of AOP1 in Xenopus oocytes. Oocytes were removed from female Xenopus laevis frogs and prepared as described by Dascal (CRC Crit. Rev. Biochem., 1987, 22:317-373). Oocytes were injected with 0.05 microliters of water (control) or the same volume of water containing 1-10 nanograms of AQP1 RNA. The oocytes were incubated for up to 96 hours at 18° C. in modified Barth's buffer (88 mM NaCl, 1 mM KCl, 0.8 mM MgSO4, 0.3 mM Ca(NO3) 2, 0.4 mM CaCl2, 2.4 mM NaHCO3, 10 mM HEPES, pH =7.4, total osmolality =200 mOsm/kg) also containing antibiotics. The whole oocytes were then removed and total cellular protein was dissolved in 40 microliters of buffer containing 1% (w/v) SDS and analyzed by immunoblot (Towbin et al., 1979, Proc. Natl. Acad. Sci. USA 76:4350-4354).
(§2) A swelling assay was adapted from that of published work (Fischbarg et al., 1990, Proc. Natl. Acad. Sci. USA 87:3244-3247; Zhang et al., 1990, J. Biol. Chem. 265:15375-15378). Control-injected oocytes and AQP1 RNA-injected oocytes were incubated at 22° C. in modified Barth's solution diluted with distilled H2 O to 30% of the original tonicity. The oocytes were then observed by videomicroscopy. Swelling was monitored with a Nikon phase-contrast microscope equipped for videorecording. The longest (D1) and shortest (D2) diameters of the oocytes were measured at 15- to 30-second intervals. Oocyte volumes (V) at each time point were calculated relative to volume at the initial observation (V0):
The change in relative volume with time, d(V/Vo)/dt, up to 8 minutes (or time of oocyte rupture) was fitted by computer to a quadratic polynomial, and initial rates of swelling were calculated. Osmotic water permeability (Pf, in cm/s) was calculated from osmotic swelling data, initial oocyte surface area (S=0.045 cm^2), and the molar volume of water (Vw =18 cm^3 /mol) (Zhang et al., 1990, J. Biol. Chem. 15375):
Pf =[Vo ×d(V/V0)dt]/[S×Vw
After 72 hours, control- or AQP1 RNA-injected (10 ng) oocytes were treated as indicated. Some oocytes were left in standard Barth's buffer prior to measurement of osmotic swelling at 22° C. […]

Xenopus oocytes = experiment: Osmotic water permeability (swelling) of control- or AQP1 RNA-injected Xenopus oocytes; type: cell-based, Xenopus laevis; conditions: control-injected oocytes (RNA None), 22° C.
Protocol: as §1
as §2, with “Control-injected oocytes and AQP1 RNA-injected oocytes were incubated at 22° C. in modified Barth's solution diluted with distilled H2 O to 30% of the original tonicity. The oocytes were then observed by videomicroscopy.” left out, “(V0): […]” for “(V0):”

T1 sequence (P47864 whole entry): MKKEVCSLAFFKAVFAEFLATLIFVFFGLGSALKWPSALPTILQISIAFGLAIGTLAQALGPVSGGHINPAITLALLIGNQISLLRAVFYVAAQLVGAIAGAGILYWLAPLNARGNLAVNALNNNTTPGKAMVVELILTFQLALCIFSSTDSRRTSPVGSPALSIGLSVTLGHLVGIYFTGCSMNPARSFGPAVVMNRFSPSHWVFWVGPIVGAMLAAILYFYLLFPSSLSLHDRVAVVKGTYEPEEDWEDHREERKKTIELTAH

Pf of AQP5 oocytes after HgCl2, effect of β-mercaptoethanol (AQP5; 5 mM β-mercaptoethanol 30 min. after 1 mM HgCl2)	Pf of AQP1 oocytes after HgCl2, effect of β-mercaptoethanol (AQP1; 5 mM β-mercaptoethanol 30 min. after 1 mM HgCl2 (FIG. 15))	Swelling of AQP1 RNA-injected oocytes after HgCl2, effect of β-mercaptoethanol (AQP1; 5 mM β-mercaptoethanol after 0.3 mM HgCl2)	Pf (AQP1; HgCl2 0.3 then ME 5 for 15 min, 22° C.)	SMILES	effect of HgCl2 on Pf of oocytes expressing AQP5 (AQP5)	effect of HgCl2 on Pf of oocytes expressing AQP5 (AQP5; listed as Hg Cl2)	Swelling of AQP1 RNA-injected oocytes, effect of HgCl2 (AQP1; 0.3 mM HgCl2)	effect of HgCl2 on increase in Pf mediated by AQP1 (AQP1; 1 mM HgCl2, 5 min. (FIG. 15))	Pf (AQP1; 72 hours, HgCl2 0.3, ME 0, 5 minutes, swelling at 22° C.)	Pf (AQP1; 72 hours, HgCl2 3.0, ME 0, 5 minutes, 22° C.)	Pf (Xenopus oocytes; HgCl2 0.3 (nM), ME 0)	Pf (Xenopus oocytes)
–	–	–	–	[Cl][Hg][Cl] [HgCl2]	comparable reduction in Pf; also recorded: reversibly inhibited	reversibly inhibited	inhibited	blocked	80.7 cm/s x 10^-4	34.5 cm/s x 10^-4	20.3 cm/s x 10^-4	–
restored	restored	restored	188 cm/s x 10^-4	OCCS [β-mercaptoethanol]	–	–	–	–	–	–	–	25.4 cm/s x 10^-4

Reference: patent publication US5858702A, “Isolation, cloning and expression of transmembrane water channel Aquaporin 5 (AQP5)” (The Johns Hopkins University, priority 1995, dated 1999)
